Measurements published in EP3256120B1, “PSORALEN DERIVATIVES AS NON-PEPTIDIC INHIBITORS OF CHYMOTRYPSIN-LIKE ACTIVITY OF THE IMMUNOPROTEASOME” (Univerza v Ljubljani, priority 2015, dated 2016).

Tests used:
[1] = target: T1, β5i subunit of human immunoproteasome (Homo sapiens, UniProt P28062); test: Evaluation of reversible inhibitors of the β5i subunit (mode of inhibition and Ki, Dixon plots); format: biochemical; settings: competitive inhibitors (footnote b), Suc-LLVY-AMC 12.5 µM to 125 µM, immunoproteasome 0.25 µg/mL
T1 construct: purchased Boston Biochem, Inc., Cambridge, MA, USA
Procedure: The test compounds from the preliminary inhibitory assay with residual activities equal to or lower than 60% were characterized further by determining the mode of inhibition (competitive, non-competitive, uncompetitive, mixed inhibition). The assays were performed as described above. Five or more different concentrations of the test compounds ranging from 0.1 µM to 100 µM were used to determine the kinetic parameters at four different substrate concentrations (Suc-LLVY-AMC ranging from 12.5 µM to 125 µM). Final concentration of the immunoproteasome remained the same as before (0.25 µg/mL). The results obtained were analyzed as outlined above (see Equations 1 and 2), and two plots were derived using Microsoft Office Excel 2007:
- 1/v plotted against inhibitor concentration (Dixon plot; v- velocity, equal to the slope of the line k),
- [S]/v plotted against different concentrations of inhibitor ([S] equals substrate concentration).
The mode of inhibition was estimated from the relative positions of the lines obtained.

[2] = target: T1, β5i subunit of human immunoproteasome; test: Preliminary evaluation of inhibition of the β5i subunit (residual activity, Suc-LLVY-AMC fluorescence); format: biochemical; settings: test compound 10 µM, 30 min preincubation at 37 °C, Suc-LLVY-AMC 25 µM, immunoproteasome 0.25 µg/mL
Procedure: Appropriate stock solutions (mM concentration) of the test compounds were prepared in DMSO. Subsequent dilutions of the compounds, as well as the immunoproteasome and the substrate were prepared in buffered solution (50 mM Tris-HCI (pH 8.0), 0.5 mM EDTA, 0.01% SDS). To a 96-well black microtiter plate, human immunoproteasome (final concentration, 0.25 µg/mL) (Boston Biochem, Inc., Cambridge, MA, USA) was added, followed by either test compounds (10 µM final concentration) or buffered solution (with and without the DMSO), which accounted for the control group. Microtiter plate was covered with aluminum foil and incubated at 37 °C for 30 minutes with medium agitation. The reaction was initiated by the addition of β5- and β5i-selective substrate Suc-LLVY-AMC (25 µM final concentration). The reaction progress was recorded on the BioTek Synergy HT microplate reader by monitoring fluorescence at 460 nm (λex = 360 nm) every 5 minutes for 120 min at 37 °C. At least two independent experiments were performed. The initial linear ranges (between 20th and 60th minute) were used to calculate the slope of the line (k) by dividing the difference of fluorescence intensities (F) with the time difference (t) (Equation 1). The residual activities in percentages were calculated from the slopes obtained (Equation 2). The calculations were performed in Microsoft Office Excel 2007. k = ΔF/Δt [formula] • k slope of the line • F fluorescence intensity • t time (min) Residualactivityin% = kt /knt *100% [formula] • kt slope of the line for the treated enzyme • knt slope of the line for the non-treated enzyme

[3] = target: T1, β5i subunit of human immunoproteasome; test: Evaluation of irreversible inhibitors of the β5i subunit (IC50); format: biochemical; settings: Suc-LLVY-AMC 25 µM, immunoproteasome 0.25 µg/mL, fluorescence increase between 20th and 60th minute
Procedure: The test compounds with time-dependent inhibitory activities were treated and evaluated as irreversible inhibitors. The assay was performed as described in the 44 section Preliminary evaluation of inhibition of the β5i subunit of human immunoproteasome. At least seven different concentrations of the test compounds ranging from 0.001 µM to 50 µM were used. The final concentrations of the substrate Suc-LLVY-AMC and the immunoproteasome were 25 µM and 0.25 µg/mL, respectively. At least two independent experiments were performed. The increases in fluorescence intensity between 20th and 60th minute and appropriate test compounds concentrations were analyzed with GraphPad Prism 5.01 to determine the IC50 values. Table 1. Inhibitory potencies of reversible psoralen-based inhibitors against the β5i subunit of the human immunoproteasome. The following compounds are not part of the invention.

[4] = target: β5i (Homo sapiens, UniProt P28062); settings: inhibition of the β5i; Singh A.V. et al. 2011; cited from earlier work
[5] = target: proteasomal β5 (Homo sapiens, UniProt P28074); settings: Singh A.V. et al. 2011; cited from earlier work
[6] = test system: other catalytic subunits (β1, β1i, β2, β2i); settings: cited from earlier work
[7] = test system: normal peripheral blood mononuclear cells; settings: exposure to high (up to 20 µM) concentrations; cited from earlier work
[8] = test system: MHC-I receptors on the surface; settings: Muchamuel T. et al. 2009; cited from earlier work

Ki [1]	RA (%) [2]	SMILES	also measured
2.4 µM	–	Cc1c(CC(=O)O)c(=O)oc2cc3occ(-c4ccccc4)c3cc12	–
1.6 µM	–	Cc1c(CCC(=O)O)c(=O)oc2cc3occ(-c4ccccc4)c3cc12	–
12.7 µM	–	Cc1c(CC(=O)O)c(=O)oc2cc3occ(-c4ccc(Br)cc4)c3cc12	–
8.2 µM	–	COc1ccc(-c2coc3cc4oc(=O)c(CC(=O)O)c(C)c4cc23)cc1	–
7 µM	–	COc1cccc(-c2coc3cc4oc(=O)c(CC(=O)O)c(C)c4cc23)c1	–
89.3 µM	–	Cc1c(CC(=O)O)c(=O)oc2cc3occ(-c4ccco4)c3cc12	–
–	82%	Cc1c(C(=O)O)c(=O)oc2cc3occ(-c4ccccc4)c3cc12	–
3.8 µM	–	O=C(O)Cc1cc2cc3c(-c4ccccc4)coc3cc2oc1=O	–
–	88%	Cc1c(N)c(=O)oc2cc3occ(-c4ccccc4)c3cc12	–
39.6 µM	–	Cc1c(CN)c(=O)oc2cc3occ(-c4ccccc4)c3cc12	–

The next lines start with the compound.

SMILES	Ki [1]	RA (%) [2]	also measured
Cc1c(CCC(=O)O)c(=O)oc2cc3occ(-c4ccc(Br)cc4)c3cc12	137 µM	–	–
COc1ccc(-c2coc3cc4oc(=O)c(CCC(=O)O)c(C)c4cc23)cc1	–	84%	–
COc1cccc(-c2coc3cc4oc(=O)c(CCC(=O)O)c(C)c4cc23)c1	29.6 µM	–	–
Cc1c(CC(=O)O)c(=O)oc2cc3occ(C4CCCCC4)c3cc12	198 µM	–	–
Cc1c(CCC(=O)O)c(=O)oc2cc3occ(C4CCCCC4)c3cc12	–	102%	–
Cc1cc(-c2coc3cc4oc(=O)c(CC(=O)O)c(C)c4cc23)c(C)s1	36.5 µM	–	–
Cc1cc(-c2coc3cc4oc(=O)c(CCC(=O)O)c(C)c4cc23)c(C)s1	52.3 µM	–	–
Cc1cc(-c2coc3cc4oc(=O)c(CC(=O)O)c(C)c4cc23)c(C)o1	351 µM	–	–
Cc1cc(-c2coc3cc4oc(=O)c(CCC(=O)O)c(C)c4cc23)c(C)o1	–	100%	–
Cc1c(CCC(=O)O)c(=O)oc2cc3occ(-c4ccco4)c3cc12	116 µM	–	–
Cc1c(CC(=O)ON2C(=O)CCC2=O)c(=O)oc2cc3occ(-c4ccccc4)c3cc12	–	–	IC50 [3]: 6.4 µM
Cc1c(CCC(=O)ON2C(=O)CCC2=O)c(=O)oc2cc3occ(-c4ccccc4)c3cc12	–	–	IC50 [3]: 0.09 µM
C=CC(=O)Nc1c(C)c2cc3c(-c4ccccc4)coc3cc2oc1=O	–	–	IC50 [3]: 20.5 µM
CC1=C(C(=O)N[C@H](C)C(=O)N[C@@H](Cc2c[nH]c3ccccc23)C(=O)N[C@@H](Cc2ccccc2)C(=O)[C@@]2(C)CO2)Cc2ccccc21 [PR-924]	–	–	IC50 [4]: 0.022 µM; selectivity for inhibition of the β5i over proteasomal β5 [5]: > 100 fold; inhibition of other catalytic subunits [6]: little or no inhibition; toxicities in normal peripheral blood mononuclear cells [7]: no significant toxicities
COc1ccc(C[C@H](NC(=O)[C@H](C)NC(=O)CN2CCOCC2)C(=O)N[C@@H](Cc2ccccc2)C(=O)[C@@]2(C)CO2)cc1 [PR-957]	–	–	reduction of the expression of MHC-I receptors on the surface to [8]: 50%
Cc1coc2cc3oc(=O)c(CC(=O)O)c(C)c3cc12 [n=1, 1R=Me]	–	88%	–
Cc1c(CC(=O)O)c(=O)oc2cc3occ(C(C)(C)C)c3cc12 [n=1, 1R=t-Bu]	–	85%	–
Cc1coc2cc3oc(=O)c(CCC(=O)O)c(C)c3cc12 [n=2, 1R=Me]	–	94%	–
Cc1c(CCC(=O)O)c(=O)oc2cc3occ(C(C)(C)C)c3cc12 [n=2, 1R=t-Bu]	–	83%	–
